The text below walks through data of patent US12065443B2, “Compounds and pharmaceutical compositions thereof for the treatment of diseases” (priority 2017, dated 2024).

Experiment [1] deals with LPS driven TNFα secretion in Peripheral Blood Mononuclear Cells (PBMC). Nature of the experiment: cells. The class given is cell-based. Conditions: Homo sapiens, LPS 1 ng/mL, supernatant after 18-20 h, ELISA.
Protocol: This assay measures the inhibition of LPS driven TNFα secretion by a test compound in Peripheral Blood Mononuclear Cells (PBMC), which in turn correlates with SIK inhibition.
PBMCs are isolated from human blood samples (buffy coats). The buffy coat is aseptically transferred into a 50 mL Falcon™ tube, and diluted 1/2 in Phosphate Buffered Saline (PBS). […] The tubes are centrifuged for 35 min at 400× g in temperature controlled centrifuge, without brake, at 25° C. PBMCs are aspirated from the white interface layer between sample and Lymphoprep. PBMCs are washed five times in PBS. […] The PBMCs are finally seeded at 400,000 PBMC/160 μL/96-well.
A compound dilution plate is made in 100% DMSO by 3-fold dilution of 10 mM stock solution of test compound. An intermediate dilution plate (10× final concentration) is made by diluting the compound dilution plate 50-fold in RPMI medium.
20 μL of the 10× final concentration compound is added to the cells and incubated for 1 hour at 37° C. before addition of trigger. No trigger conditions/trigger conditions are spiked with equal final DMSO concentrations of 0.2% DMSO. 20 μL of 10×LPS (final concentration 1 ng/mL) solution are added to all wells except for the ‘no trigger wells’ where 20 μL medium is added. Supernatant is collected after 18-20 h for IL-10 and TNFα determination using ELISA.
The plate is then washed once with PBST (PBS+0.05% Tween20) and once with PBS followed by the addition of 100 μL of blocking buffer (1% Bovine Serum Albumin (BSA)-5% Sucrose) and plates are sealed and incubated for at least 4 h at RT. After washing the plate once with PBST and once with PBS, 40 μL of standard or sample are added (TNFα standard curve is prepared using a 1/2 serial dilution starting from 16000 pg/mL; dilutions are made in dilution buffer (PBS+1% BSA)). Plates are washed twice with PBST, and once with PBS, after which 35 μL of the detection antibody is added (final concentration 0.25 μg/mL diluted in dilution buffer) and plates are incubated for at least 2 h at RT. Plates are washed twice with PBST, and once with PBS, where after 35 μL of Strep-HRP conjugate (0.5 μg/mL final concentration diluted in dilution buffer) is added. Plates are incubated in the dark, at RT for at least 45 min but no longer than 1 hour. Plates are washed twice with PBST, and once with PBS. Thereafter, 50 μL of luminol substrate is added to each well (prepared according to manufacturer's instructions), and incubated for 5 min at RT protected from light.
To measure the inhibition of LPS induced TNFα, percentage inhibition (PIN) values are calculated for all concentrations tested, compared to controls.
PIN values are plotted in concentration-response and EC50 values are derived using GraphPad Prism Software, applying 4-parameter nonlinear regression (sigmoidal) curve fitting.
In experiment [2] the target is T1, SIK1 (Homo sapiens, UniProt P57059).
T1 construct: purchased Carna Biosciences 02-131
T1 sequence (P57059 whole entry): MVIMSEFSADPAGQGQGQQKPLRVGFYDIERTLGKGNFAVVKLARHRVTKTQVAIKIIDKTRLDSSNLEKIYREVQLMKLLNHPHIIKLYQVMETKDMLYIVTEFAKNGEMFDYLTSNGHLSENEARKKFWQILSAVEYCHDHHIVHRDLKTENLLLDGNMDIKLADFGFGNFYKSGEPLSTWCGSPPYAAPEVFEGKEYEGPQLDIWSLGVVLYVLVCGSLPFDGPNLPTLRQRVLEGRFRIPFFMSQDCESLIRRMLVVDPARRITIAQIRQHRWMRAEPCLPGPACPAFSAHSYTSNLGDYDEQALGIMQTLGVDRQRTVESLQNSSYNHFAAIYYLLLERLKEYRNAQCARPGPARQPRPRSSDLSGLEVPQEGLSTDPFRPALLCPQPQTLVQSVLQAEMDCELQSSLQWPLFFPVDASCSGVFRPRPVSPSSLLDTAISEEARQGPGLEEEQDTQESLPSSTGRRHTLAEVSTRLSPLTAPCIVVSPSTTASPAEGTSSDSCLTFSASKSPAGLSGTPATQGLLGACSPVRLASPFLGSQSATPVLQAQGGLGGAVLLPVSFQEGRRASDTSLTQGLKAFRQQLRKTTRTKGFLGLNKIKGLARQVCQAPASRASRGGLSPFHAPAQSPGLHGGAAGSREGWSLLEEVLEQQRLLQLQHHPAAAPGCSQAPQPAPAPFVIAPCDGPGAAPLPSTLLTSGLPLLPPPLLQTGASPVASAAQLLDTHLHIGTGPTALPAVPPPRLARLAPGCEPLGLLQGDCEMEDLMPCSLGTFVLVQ
Nature of the experiment: biochemical. Conditions: ADP-Glo SIK kinase assay. An outline of the steps:
(§1)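 Wells with 1% DMSO or 10 μM staurosporine (final) define the control window. The kinase reaction with substrate and ATP runs 120 min at RT, followed by ADP-Glo detection: ATP depletion (40 min) and ADP-derived luminescence (30 min).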

Experiment [3] has as its target T2, SIK2 (Homo sapiens, UniProt Q9H0K1).
T2 construct: purchased ThermoFisher Scientific PV4792
Nature of the experiment: biochemical. Conditions: ADP-Glo SIK kinase assay. In outline: as §1

Experiment [4] deals with T3, SIK3 (Homo sapiens, UniProt Q9Y2K2).
T3 construct: purchased SignalChem S12-11G-100
T3 sequence (Q9Y2K2 whole entry): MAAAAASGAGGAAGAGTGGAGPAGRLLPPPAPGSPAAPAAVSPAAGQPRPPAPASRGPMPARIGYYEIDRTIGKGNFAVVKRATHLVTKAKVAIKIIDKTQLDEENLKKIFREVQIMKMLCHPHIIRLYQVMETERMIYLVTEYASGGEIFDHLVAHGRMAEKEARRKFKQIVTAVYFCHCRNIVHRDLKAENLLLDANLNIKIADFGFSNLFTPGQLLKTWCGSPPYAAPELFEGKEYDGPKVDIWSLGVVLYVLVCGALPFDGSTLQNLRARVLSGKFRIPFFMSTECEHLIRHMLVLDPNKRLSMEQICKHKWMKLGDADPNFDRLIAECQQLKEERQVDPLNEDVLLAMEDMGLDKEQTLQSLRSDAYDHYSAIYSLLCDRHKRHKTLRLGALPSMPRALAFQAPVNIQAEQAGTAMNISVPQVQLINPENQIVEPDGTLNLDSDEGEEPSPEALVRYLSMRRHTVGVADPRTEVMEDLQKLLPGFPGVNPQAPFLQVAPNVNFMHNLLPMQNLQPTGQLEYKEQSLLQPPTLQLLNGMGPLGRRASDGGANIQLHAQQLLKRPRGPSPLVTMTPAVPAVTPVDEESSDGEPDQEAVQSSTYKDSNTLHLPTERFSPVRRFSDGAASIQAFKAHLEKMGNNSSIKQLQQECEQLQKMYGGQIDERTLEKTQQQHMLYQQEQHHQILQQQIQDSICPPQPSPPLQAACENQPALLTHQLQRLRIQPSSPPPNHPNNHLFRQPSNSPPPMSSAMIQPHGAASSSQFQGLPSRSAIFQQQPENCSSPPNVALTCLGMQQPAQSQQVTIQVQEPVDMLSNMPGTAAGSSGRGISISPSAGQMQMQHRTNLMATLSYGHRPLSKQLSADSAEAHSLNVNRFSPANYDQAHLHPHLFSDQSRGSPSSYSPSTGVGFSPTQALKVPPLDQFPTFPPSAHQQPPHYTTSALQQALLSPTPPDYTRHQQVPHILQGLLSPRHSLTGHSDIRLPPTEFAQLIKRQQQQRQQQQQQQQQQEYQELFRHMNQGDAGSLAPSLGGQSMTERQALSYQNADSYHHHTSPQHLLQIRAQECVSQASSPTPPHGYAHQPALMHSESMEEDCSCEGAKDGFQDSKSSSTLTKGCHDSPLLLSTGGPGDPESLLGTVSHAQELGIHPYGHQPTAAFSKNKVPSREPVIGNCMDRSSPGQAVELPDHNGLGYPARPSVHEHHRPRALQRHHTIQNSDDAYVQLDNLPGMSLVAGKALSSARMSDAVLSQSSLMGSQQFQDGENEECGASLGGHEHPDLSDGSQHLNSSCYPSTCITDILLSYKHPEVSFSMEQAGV
Nature of the experiment: biochemical. Conditions: ADP-Glo SIK kinase assay. An outline of the steps:
as §1

Experiment [5] concerns LPS-induced TNFα secretion in monocyte-derived macrophages (MdM). As to the kind of experiment: MdM assay: LPS-triggered TNFα (ELISA). The class given is cell-based, human. Conditions: Homo sapiens, Macrophage, LPS-triggered TNFα inhibition. In outline:
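Human CD14+ monocytes isolated from buffy-coat PBMCs by magnetic beads, differentiated to macrophages; on day 10 compound preincubated 1 h at 37 °C, then LPS 200 ng/mL added (0.2% DMSO). Supernatant taken after 20 h; TNFα quantified by sandwich ELISA against standard curve.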

For experiment [6], the target named is T1, SIK1. Nature of the experiment: biochemical. Conditions: 33P radioactive SIK kinase assay, AMARA peptide, 10 μM ATP; read-out: SIK1 IC50. In outline: (§2)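 AMARA peptide phosphorylation by SIK1–3 is quantified through ^33P uptake from a labeled/unlabeled ATP blend. Staurosporine at 10 μM final defines full inhibition, 1% DMSO the uninhibited signal. Quench uses phosphoric acid; counting follows filter capture.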

Experiment [7] concerns the target T2, SIK2. As to the kind of experiment: biochemical. Conditions: 33P radioactive SIK kinase assay, AMARA peptide, 10 μM ATP. In outline: as §2
Experiment [8] deals with T3, SIK3. Nature of the experiment: biochemical. In outline:
as §2

In experiment [9] the test system is LPS triggered IL-10 secretion in monocyte-derived macrophages (MdM). Nature of the experiment: MdM assay: LPS-triggered IL-10 (ELISA). The class given is cell-based, human. Conditions: maximal fold change vs LPS only, median across assays. In outline: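 CD14+ monocytes isolated from human buffy-coat PBMCs and differentiated to macrophages for 10 days. Cells pre-treated with compound 1 h at 37° C (0.2% DMSO), then stimulated with 200 ng/mL LPS; IL-10 in supernatant at 2 h measured by ELISA (A450). Maximal fold change versus LPS only reported as median of two or more runs.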

Like-named read-outs stand apart in the source and are kept apart here.

T2 sequence (Q9H0K1 whole entry): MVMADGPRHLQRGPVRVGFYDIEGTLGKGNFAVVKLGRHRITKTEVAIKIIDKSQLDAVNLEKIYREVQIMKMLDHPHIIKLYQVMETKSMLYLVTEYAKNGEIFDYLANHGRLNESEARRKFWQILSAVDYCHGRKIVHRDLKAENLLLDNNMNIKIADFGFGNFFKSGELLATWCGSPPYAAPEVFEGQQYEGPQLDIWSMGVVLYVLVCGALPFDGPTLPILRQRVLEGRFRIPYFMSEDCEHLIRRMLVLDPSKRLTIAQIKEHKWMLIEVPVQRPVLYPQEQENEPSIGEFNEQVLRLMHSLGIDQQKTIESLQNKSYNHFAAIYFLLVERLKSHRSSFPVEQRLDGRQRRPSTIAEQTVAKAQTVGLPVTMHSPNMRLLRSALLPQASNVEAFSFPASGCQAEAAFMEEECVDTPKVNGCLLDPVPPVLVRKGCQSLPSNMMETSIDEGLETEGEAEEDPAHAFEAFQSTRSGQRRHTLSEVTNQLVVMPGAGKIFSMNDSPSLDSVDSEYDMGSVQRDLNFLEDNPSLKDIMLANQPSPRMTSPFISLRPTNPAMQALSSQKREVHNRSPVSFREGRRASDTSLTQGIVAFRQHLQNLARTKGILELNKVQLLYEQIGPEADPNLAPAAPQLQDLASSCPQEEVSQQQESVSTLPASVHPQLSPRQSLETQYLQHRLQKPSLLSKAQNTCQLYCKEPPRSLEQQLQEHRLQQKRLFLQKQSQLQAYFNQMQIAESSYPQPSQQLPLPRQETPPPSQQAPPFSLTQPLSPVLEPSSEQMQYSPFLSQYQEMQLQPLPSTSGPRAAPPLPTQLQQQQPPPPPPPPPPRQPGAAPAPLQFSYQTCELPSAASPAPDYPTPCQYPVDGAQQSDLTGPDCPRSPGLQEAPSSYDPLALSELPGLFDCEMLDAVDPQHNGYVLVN

Turning to `CCNC(=O)c1c(OC)cc(-n2cnc3cc(-c4cnn(C)c4)cnc32)cc1OC(F)F` [compound 177, 2-(difluoromethoxy)-N-ethyl-6-methoxy-4-[6-(1-methylpyrazol-4-yl)imidazo[4,5-b]pyridin-3-yl]benzamide], the results for the EC50 in experiment [1] and in experiment [5] were 0.1 to 100 nM and 100 to 1000 nM, respectively. Besides, the IC50 against SIK1 [2] was 10 to 100 nM; on SIK2 [3], 0.01 to 10 nM; on SIK3 [4], 0.01 to 10 nM; on SIK1 [6], 10 to 100 nM; at SIK2 [7], 10 to 100 nM; on SIK3 [8], 10 to 100 nM.

For `COc1cc(-n2cnc3cc(-c4cnn(C)c4)ccc32)cc(OC)c1C(=O)N1CC(C#N)C1` [compound 192, 1-[2,6-dimethoxy-4-[5-(1-methylpyrazol-4-yl)benzimidazol-1-yl]benzoyl]azetidine-3-carbonitrile], the EC50 in [1] and in experiment [5] was 100 to 1000 nM throughout. The IC50 fell in the range of 10 to 100 nM at SIK1 [2]; 0.01 to 10 nM on SIK2 [3]; 0.01 to 10 nM on SIK3 [4]; 10 to 100 nM at SIK1 [6]; 10 to 100 nM on SIK2 [7]; 10 to 100 nM on SIK3 [8].

Consider `COc1cc(-n2cnc3cc(-c4cnn(C5CN(C)C5)c4)ccc32)cc(OC)c1C(=O)NCC(F)(F)F` [Cpd 98, 2,6-dimethoxy-4-[5-[1-(1-methylazetidin-3-yl)pyrazol-4-yl]benzimidazol-1-yl]-N-(2,2,2-trifluoroethyl)benzamide], for which, in experiment [9], the “IL-10 FCmax median” value was “++ (>1.5-4.5)”. Moreover, the EC50 in [1] and in experiment [5] was 0.1 to 100 nM each time. For the same compound, the IC50 on SIK1 [2] fell in the range of 0.01 to 10 nM; against SIK2 [3], 0.01 to 10 nM; against SIK3 [4] it was 0.01 to 10 nM; at SIK1 [6] it was 10 to 100 nM; at SIK2 [7], 0.01 to 10 nM; at SIK3 [8], 0.01 to 10 nM.

Consider `COc1cc(-c2cnc3cc(-c4cnn(C)c4)ccn23)cc(OC)c1C(=O)N1CC(F)(F)C1` [Cpd 173, (3,3-difluoroazetidin-1-yl)-[2,6-dimethoxy-4-[7-(1-methylpyrazol-4-yl)imidazo[1,2-a]pyridin-3-yl]phenyl]methanone], for which the “IL-10 FCmax median” value in [9] is “++ (>1.5-4.5)”. In addition, the EC50 in [1] and in experiment [5] was 0.1 to 100 nM throughout. The IC50 at SIK1 [2] lay in the range of 0.01 to 10 nM; on SIK2 [3], 0.01 to 10 nM; at SIK3 [4] it was 0.01 to 10 nM; on SIK1 [6], 10 to 100 nM; at SIK2 [7], 0.01 to 10 nM; against SIK3 [8] it was 0.01 to 10 nM.

For the compound `COc1cc(-c2cnc3cc(-c4cnn(C)c4)ccn23)cc(OC)c1C(=O)NCC(F)(F)F` [Cpd 88], the “IL-10 FCmax median” value in [9] is on record as “++ (>1.5-4.5)”. For the same compound, the EC50 in [1] and in [5] was 0.1 to 100 nM throughout. For the same compound, the IC50 at SIK1 [2], against SIK2 [3], against SIK3 [4], at SIK1 [6], on SIK2 [7] and against SIK3 [8] was 0.01 to 10 nM in each case.

On to `CCN1Cc2cc(-c3cnc4cc(-c5cnn(C)c5)ccn34)cc(OC)c2C1=O` [compound 176, 2-ethyl-7-methoxy-5-[7-(1-methylpyrazol-4-yl)imidazo[1,2-a]pyridin-3-yl]isoindolin-1-one], for which the EC50 fell in the range of 0.1 to 100 nM in experiment [1] and 100 to 1000 nM in [5]. In addition, the IC50 lay within 10 to 100 nM at SIK1 [2]; 0.01 to 10 nM against SIK2 [3]; 0.01 to 10 nM at SIK3 [4]; 10 to 100 nM at SIK1 [6]; 10 to 100 nM on SIK2 [7]; 10 to 100 nM at SIK3 [8].

As for `COc1cc(-c2cnc3cc(-c4cnn(C)c4)ccn23)cc(OC)c1C(=O)N[C@H](C)C(F)(F)F` [Cpd 174, 2,6-dimethoxy-4-[7-(1-methylpyrazol-4-yl)imidazo[1,2-a]pyridin-3-yl]-N-[(1R)-2,2,2-trifluoro-1-methyl-ethyl]benzamide], the “IL-10 FCmax median” value in experiment [9] is recorded as “++ (>1.5-4.5)”. Further, the EC50 in experiment [1] and in [5] was 0.1 to 100 nM throughout. The IC50 against SIK1 [2], against SIK2 [3], on SIK3 [4], on SIK1 [6], on SIK2 [7] and against SIK3 [8] was 0.01 to 10 nM in each case.

Regarding `COc1cc(-n2cnc3cc(-c4cnn(C5COC5)c4)ccc32)cc(OC)c1C(=O)NCC(F)(F)F` [compound 85, 2,6-dimethoxy-4-[5-[1-(oxetan-3-yl)pyrazol-4-yl]benzimidazol-1-yl)-N-(2,2,2-trifluoroethyl)benzamide], the “IL-10 FCmax median” value in experiment [9] is on record as “++ (>1.5-4.5)”. Moreover, the EC50 in [1] and in experiment [5] was 0.1 to 100 nM in each case. Further, the IC50 on SIK1 [6] lay within 10 to 100 nM; on SIK2 [7], 0.01 to 10 nM; against SIK3 [8], 0.01 to 10 nM.

For `CCNC(=O)c1c(OC)cc(-c2cnc3cc(-c4cnn(C)c4)ccn23)cc1OC(F)F` [compound 116, 2-(difluoromethoxy)-N-ethyl-6-methoxy-4-[7-(1-methylpyrazol-4-yl)imidazo[1,2-a]pyridin-3-yl]benzamide], the “IL-10 FCmax median” value in experiment [9] is “++ (>1.5-4.5)”. Besides, the EC50 in [1] and in [5] was 0.1 to 100 nM each time. Moreover, the IC50 at SIK1 [6], on SIK2 [7] and at SIK3 [8] was 0.01 to 10 nM throughout.

For `CCNC(=O)c1c(OC)cc(-c2cnc3cc(-c4cn(C)cn4)ccn23)cc1OC(F)F` [compound 178, 2-(difluoromethoxy)-N-ethyl-6-methoxy-4-[7-(1-methylimidazol-4-yl)imidazo[1,2-a]pyridin-3-yl]benzamide], the “IL-10 FCmax median” value in experiment [9] was “++ (>1.5-4.5)”. Further, the EC50 in [1] and in experiment [5] was 0.1 to 100 nM in each case. Besides, the IC50 lay in the range of 10 to 100 nM on SIK1 [6], 0.01 to 10 nM at SIK2 [7] and 0.01 to 10 nM on SIK3 [8].

As to `COc1cc(-n2cnc3cc(-c4ccnc(N5CCN(C)CC5)c4)ccc32)cc(OC)c1C(=O)NCC(F)(F)F` [compound 120, 2,6-dimethoxy-4-[5-[2-(4-methylpiperazin-1-yl)-4-pyridyl]benzimidazol-1-yl]-N-(2,2,2-trifluoroethyl)benzamide], the “IL-10 FCmax median” value in experiment [9] is given as “++ (>1.5-4.5)”. In addition, the values for the EC50 in experiment [1] and in experiment [5] were 0.1 to 100 nM and 100 to 1000 nM, respectively. The IC50 against SIK1 [2] fell in the range of 10 to 100 nM; against SIK2 [3], 0.01 to 10 nM; against SIK3 [4] it was 0.01 to 10 nM; at SIK1 [6], 10 to 100 nM; at SIK2 [7] it was 10 to 100 nM; at SIK3 [8], 0.01 to 10 nM.
